Test system: membrane érythrocytaire
Test: Membrane adsorption at haematocrit 45%
Format: in vitro ADME
Details: not given
Description: (§1) Ces composés ont été également testés pour leur absorption membranaire et stabilité érythrocitaire et plasmatique.

SMILES	Adsorption membranaire à Hte 45%
C=CCN1CC[C@]23c4c5ccc(OS(=O)(=O)O)c4O[C@H]2C(=O)CC[C@@]3(OS(=O)(=O)O)[C@H]1C5 [naloxone-3,14-disulfate]	34%
C=CCN1CC[C@]23c4c5ccc(OP(=O)(O)OC)c4O[C@H]2C(=O)CC[C@@]3(O)[C@H]1C5 [naloxone-3-phosphate(OMe)]	10%

Test system: not listed separately
Test: Stability in haemolysate
Format: in vitro ADME
Design: key: + : stable.; *a: * : stabilité dans le sérum frais à 37°C au bout de 24h : on ne retrouve que 8 à 12%, 78% et 65% de la quantité de départ dans le sérum respectivement pour (a), (b) et (c).; *b: * : stabilité dans le sérum frais à 37°C au bout de 24h : on ne retrouve que 8 à 12%, 78% et 65% de la quantité de départ dans le sérum respectivement pour (a), (b) et (c).; *c: * : stabilité dans le sérum frais à 37°C au bout de 24h : on ne retrouve que 8 à 12%, 78% et 65% de la quantité de départ dans le sérum respectivement pour (a), (b) et (c)
Details: 4°C
Description: as §1

SMILES	Stabilité dans hémolysat 4°C
C=CCN1CC[C@]23c4c5ccc(OS(=O)(=O)O)c4O[C@H]2C(=O)CC[C@@]3(OS(=O)(=O)O)[C@H]1C5 [naloxone-3,14-disulfate]	+
C=CCN1CC[C@]23c4c5ccc(OP(=O)(O)OC)c4O[C@H]2C(=O)CC[C@@]3(O)[C@H]1C5 [naloxone-3-phosphate(OMe)]	+

Same assay, conditions: 37°C

SMILES	Stabilité dans hémolysat 37°C
C=CCN1CC[C@]23c4c5ccc(OS(=O)(=O)O)c4O[C@H]2C(=O)CC[C@@]3(OS(=O)(=O)O)[C@H]1C5 [naloxone-3,14-disulfate]	+
C=CCN1CC[C@]23c4c5ccc(OP(=O)(O)OC)c4O[C@H]2C(=O)CC[C@@]3(O)[C@H]1C5 [naloxone-3-phosphate(OMe)]	+

Test system: not listed separately
Test: Stability in fresh serum
Format: in vitro ADME
Design: key to Stabilité dans sérum frais 4°C / Stabilité dans sérum frais 37°C: + : stable.; *a: * : stabilité dans le sérum frais à 37°C au bout de 24h : on ne retrouve que 8 à 12%, 78% et 65% de la quantité de départ dans le sérum respectivement pour (a), (b) et (c).; *b: * : stabilité dans le sérum frais à 37°C au bout de 24h : on ne retrouve que 8 à 12%, 78% et 65% de la quantité de départ dans le sérum respectivement pour (a), (b) et (c).; *c: * : stabilité dans le sérum frais à 37°C au bout de 24h : on ne retrouve que 8 à 12%, 78% et 65% de la quantité de départ dans le sérum respectivement pour (a), (b) et (c)
Details: 4°C
Description: as §1

SMILES	Stabilité dans sérum frais 4°C
C=CCN1CC[C@]23c4c5ccc(OS(=O)(=O)O)c4O[C@H]2C(=O)CC[C@@]3(OS(=O)(=O)O)[C@H]1C5 [naloxone-3,14-disulfate]	+
C=CCN1CC[C@]23c4c5ccc(OP(=O)(O)OC)c4O[C@H]2C(=O)CC[C@@]3(O)[C@H]1C5 [naloxone-3-phosphate(OMe)]	+

Same assay, conditions: 37°C, * = fraction of starting quantity found after 24h

SMILES	Stabilité dans sérum frais 37°C
C=CCN1CC[C@]23c4c5ccc(OS(=O)(=O)O)c4O[C@H]2C(=O)CC[C@@]3(OS(=O)(=O)O)[C@H]1C5 [naloxone-3,14-disulfate]	+
C=CCN1CC[C@]23c4c5ccc(OP(=O)(O)OC)c4O[C@H]2C(=O)CC[C@@]3(O)[C@H]1C5 [naloxone-3-phosphate(OMe)]	+

Test system: GR chargés
Test: Extracellular leak from loaded red blood cells, 24 h incubation
Format: in vitro ADME
Details: 4°C
Description: as §1

SMILES	GR chargés : Incubation 24h Fuite extra-cellulaire 4°C
C=CCN1CC[C@]23c4c5ccc(OS(=O)(=O)O)c4O[C@H]2C(=O)CC[C@@]3(OS(=O)(=O)O)[C@H]1C5 [naloxone-3,14-disulfate]	5%
C=CCN1CC[C@]23c4c5ccc(OP(=O)(O)OC)c4O[C@H]2C(=O)CC[C@@]3(O)[C@H]1C5 [naloxone-3-phosphate(OMe)]	6%

Same assay, conditions: 37°C

SMILES	GR chargés : Incubation 24h Fuite extra-cellulaire 37°C
C=CCN1CC[C@]23c4c5ccc(OS(=O)(=O)O)c4O[C@H]2C(=O)CC[C@@]3(OS(=O)(=O)O)[C@H]1C5 [naloxone-3,14-disulfate]	50%
C=CCN1CC[C@]23c4c5ccc(OP(=O)(O)OC)c4O[C@H]2C(=O)CC[C@@]3(O)[C@H]1C5 [naloxone-3-phosphate(OMe)]	40%

Target: T1, sites opioides de type µ (Oryctolagus cuniculus, UniProt G1TAQ8)
T1 construct: fraction membranaire brute obtenue à partir de tissu frais (cervelet de lapin, cervelet de cobaye); from tissue; host or cells: rabbit cerebellum (New Zealand rabbits), crude membrane fraction
Test: [3H]diprenorphine competition binding, crude membrane fraction of rabbit cerebellum
Design: species or system lapin
Details: [3H]diprenorphine 0,3 nM, rabbit cerebellum membranes, 1 h at 25°C; (n) in brackets; read-out: I50µ (concentration inhibitrice 50)
Procedure: (§2) Les animaux utilisés sont des lapins néo-zélandais d'environ 1500 g et des cobayes tricolores d'environ 300 g.
(§3) La préparation utilisée est une fraction membranaire brute obtenue à partir de tissu frais (cervelet de lapin, cervelet de cobaye) par une méthode standard d'homogénéisation et de centrifugation différentielle. La suspension finale est en tampon tris-HCl (50 mM, pH 7,4) et contient environ 5 mg de protéine par ml.
(§4) [15,16(n)-³H] diprenorphine à 25-30 CI/mmol (Amersham International plc, Amersham, Angleterre).
(§5) Radioligand (0,3 pmol) de [³H] diprenorphine et fraction membranaire brute (0,25 mg de protéine) sont incubés pendant 1 heure à 25°C dans un volume final de 1,0 ml en tampon Tris-HCl (50 mM, pH 7,4) : • (i) en absence de toute drogue compétitrice , • (ii) en présence de 12 concentrations croissantes de la nouvelle drogue et, • (iii) en présence de 10 µmol/l de diprenorphine non radioactive.
(§6) Le contenu de chaque tube est ensuite rapidement filtré (sous vide) sur disques de fibre de verre (Whatman GF/B) disposés sur un jeu de rampes de filtration Millipore modèle 1225. Les filtres sont rincés avec 2 x 3 ml de tampon froid (O-2°C) puis séchés sous une lampe IR pendant 15 minutes. La radioactivité de chaque filtre, dans 3 ml de cocktail Ready-sol MB (Beckman) est comptée avec un compteur à scintillation liquide Kontron modèle MR 300.
(§7) A partir des paramètres mesurés, il est ensuite calculé les différentes constantes Kx pour les sites considérés.
(§8) Ces valeurs ont été calculées à partir des valeurs mesurées des concentrations CI.50 de drogue inhibant de 50 % la liaison à l'équilibre de (3H) diprenorphine utilisée à la concentration fixe de 0,3 nM.

SMILES	IC50
C=CCN1CC[C@]23c4c5ccc(OS(=O)(=O)O)c4O[C@H]2C(=O)CC[C@@]3(OS(=O)(=O)O)[C@H]1C5 [naloxone-3,14-disulfate]	20.8 µM
C=CCN1CC[C@]23c4c5ccc(OP(=O)(O)OC)c4O[C@H]2C(=O)CC[C@@]3(O)[C@H]1C5 [naloxone-3-phosphate(OMe)]	1.2 µM

Same assay, conditions: calculated from the measured CI.50; rabbit cerebellum membranes; read-out: KIµ (constante de dissociation apparente du composé testé)

SMILES	Ki
C=CCN1CC[C@]23c4c5ccc(OS(=O)(=O)O)c4O[C@H]2C(=O)CC[C@@]3(OS(=O)(=O)O)[C@H]1C5 [naloxone-3,14-disulfate]	5.2 µM
C=CCN1CC[C@]23c4c5ccc(OP(=O)(O)OC)c4O[C@H]2C(=O)CC[C@@]3(O)[C@H]1C5 [naloxone-3-phosphate(OMe)]	0.26 µM

Target: T2, sites opioides de type k (Cavia porcellus, UniProt P41144)
T2 construct: fraction membranaire brute obtenue à partir de tissu frais (cervelet de lapin, cervelet de cobaye); from tissue; host or cells: guinea pig cerebellum (tricolour guinea pigs), crude membrane fraction
Test: [3H]diprenorphine competition binding, crude membrane fraction of guinea pig cerebellum
Design: species or system cobaye
Details: [3H]diprenorphine 0,3 nM, guinea pig cerebellum membranes, 1 h at 25°C; (n) in brackets; read-out: I50κ (concentration inhibitrice 50)
Procedure: as §2, §3, §4, §5, §6, §7, §8

SMILES	IC50
C=CCN1CC[C@]23c4c5ccc(OS(=O)(=O)O)c4O[C@H]2C(=O)CC[C@@]3(OS(=O)(=O)O)[C@H]1C5 [naloxone-3,14-disulfate]	> 100 µM

Same assay, conditions: calculated from the measured CI.50; guinea pig cerebellum membranes; read-out: KIκ (constante de dissociation apparente du composé testé)

SMILES	Ki
C=CCN1CC[C@]23c4c5ccc(OS(=O)(=O)O)c4O[C@H]2C(=O)CC[C@@]3(OS(=O)(=O)O)[C@H]1C5 [naloxone-3,14-disulfate]	> 25 µM
